A short description of series [1]: Metabolic stability in human liver microsomes. It is filed as in vitro ADME. To be noted: for half-life at 0.25 μM: pH 7.4; for microsomal CLint at 0.25 μM: pH 7.4, read-out: CLint (μL/min/mg protein); for in vitro clearance compared with MDAI HCl salt (reference compound): tested as racemic mixtures. The method, then:
Microsomal Assay: Human liver microsomes (20 mg/mL) were obtained. β-nicotinamide adenine dinucleotide phosphate, reduced form (NADPH), magnesium chloride (MgCl2), and dimethyl sulfoxide (DMSO) are purchased from Sigma-Aldrich.
Determination of Metabolic Stability: 7.5 mM stock solutions of test compounds of the above structural formula (e.g., of an embodiment or aspect of embodiment thereof described herein), or pharmaceutically acceptable salt thereof, are prepared in DMSO. […] The diluted microsomes are added to wells of a 96-well deep-well polypropylene plate in triplicate. […] Reactions are initiated by addition of pre-warmed NADPH solution. The final reaction volume is 0.5 mL and contains 4.0 mg/mL human liver microsomes, 0.25 μM test compound, and 2 mM NADPH in 0.1 M potassium phosphate buffer, pH 7.4, and 3 mM MgCl2. The reaction mixtures are incubated at 37° C., and […] aliquots are removed at 0, 5, 10, 20, and 30 minutes and added to shallow-well 96-well plates which contain […] of ice-cold ACN (acetonitrile) with internal standard to stop the reactions. The plates are stored at 4° C. for 20 minutes after which […] of water is added to the wells of the plate before centrifugation to pellet precipitated proteins. Supernatants are transferred to another 96-well plate and analyzed for amounts of parent remaining by LC-MS/MS using an Applied Bio-systems API 4000 mass spectrometer. The same procedure is followed for the non-labeled, such as the non-deuterated counterpart of the compound and the positive control, 7-ethoxycoumarin (1 μM). Testing is done in triplicate.
Data analysis: The in vitro T1/2s for test compounds are calculated from the slopes of the linear regression of % parent remaining (In) vs incubation time relationship.
k=−[slope of linear regression of % parent remaining (In) vs incubation time] The apparent intrinsic clearance is calculated using the following equation: […]
Data analysis is performed using Microsoft Excel Software.

The subject of series [2] is Male Sprague-Dawley rats. Nature of the series: Rat elevated zero maze test (model of anxiety). It is filed as in vivo. An excerpt:
The rat zero-maze model is a refined alternative to the plus-maze, the most widely used animal model of anxiety, and consists of an elevated annular platform, divided equally into four quadrants. Two opposite quadrants are enclosed by Perspex walls on both the inner and the outer edges of the platform, while the remaining two opposite quadrants are open being enclosed only by a Perspex “lip”. Animals will show a preference for the closed areas, and avoidance of the open sections is assumed to stem from a rodent's natural aversion to open, exposed spaces. The primary index of anxiety, which reflect changes in open arm preference, is the percentage of time spent on the open areas. A reduction in the amount of activity on the open areas is considered to reflect an increase in anxiety while an increase in time in the open arms is indicative of an anxiolytic effect. Other, ethologically-based behaviors are also assessed as indices of anxiety including total open arm entries, total line crossings, and the frequency of exploratory head dipping over the edge of the platform (HDIPS). • Shepherd, J K; Grewel, SS; Fletcher, A; Bill, DJ; Dourish, C T (1994) Behavioural and pharmacological validation of the elevated “zero-maze” as an animal model of anxiety. Psychopharmacol., 116:56-64.
Male Sprague-Dawley 200-250 g (Envigo UK) rats were used. Animals were group-housed (5 per cage; cage size: 40×40×20 cm) in a temperature-controlled environment (22±2° C.), under a 12 h light-dark cycle (lights on: 08:00 hours) for one week prior to testing. Food and water were freely available. Number of animals per group=5. Animals were moved into the experimental room 16-24 hours before testing.
The elevated 0-maze comprises a black Perspex annular platform (105 cm diameter, 10 cm width) elevated to 65 cm above ground level, divided equally into four quadrants. Two opposite quadrants are enclosed by clear red Perspex walls (27 cm high) on both the inner and outer edges of the platform, while the remaining two opposite quadrants are surrounded only by a Perspex “lip” (1 cm high) which serves as a tactile guide to animals on these open areas.
Subjects were weighed and tail marked before being injected. After a specified pre-treatment time, subjects were placed in a closed quadrant and a 5-min test period were recorded on videotape for subsequent analysis. The maze was cleaned with 5% methanol/water solution and dried thoroughly between test sessions. Behavioural measures comprise percentage time spent on the open areas (% TO). Animals are scored as being in the open area when all four paws were in an open quadrant and in the closed area only when all four paws have passed over the open-closed divide. All testing were carried out between 9.00 and 16.00 hours.
IP: MDAI (HCl salt with 82.94% free base content) was formulated in Vehicle 1 (Saline) for injection to concentrations of […] to provide doses of 0.15, 0.31, 0.625, 1.25 and 2.5 mg/kg when administered ip in 5 mL/kg dosing volumes.
Chlordiazepoxide was formulated in Vehicle 1 (saline) to a concentration of 1.2 mg/mL to provide a dose of 6 mg/kg when administered ip in 5 mL/kg dosing volumes.
35 male Sprague-Dawley rats in treatment groups of 2 or 5, was intraperitoneally dosed with either Vehicle 1 (saline) or MDAI at 1 of 5 dose levels (0.15, 0.31, 0.625, 1.25 and 2.5) or chlordiazepoxide (6 mg/kg) in 5 mL/kg injection volumes. Thirty min later at T=0, rats were individually placed in a closed arm of the zero-maze and behavior assessed by a “blind” observer using remote video monitoring over the subsequent 5 min. The animal was then removed and the maze carefully wiped with 5% methanol/water solution before the next test was begun. Three rats from the vehicle group, 3 rats from the 2.5 mg/kg MDAI group, and 3 rats from the CDP group were tested on a separate day from the other rats.
Data was analysed with Statistica software (Statsoft USA version 10.0). […]

The nature of series [3]: Double-blind, randomized, placebo-controlled clinical trial of MDAI-assisted psychotherapy in PTSD. It counts as in vivo. The method, then: A multicenter, randomized, double-blind, placebo-controlled trial is conducted to assess the efficacy and safety of MDAI-assisted psychotherapy versus psychotherapy with placebo control in participants diagnosed with at least moderate post-traumatic stress disorder (PTSD).
This multicenter, randomized, double-blind, placebo-controlled trial is conducted at various sites in the United States with IRB approval from each study site. A flexible dose of MDAI hydrochloride salt or placebo, followed by a supplemental half-dose unless contraindicated by patient's previous response or medical history, is also administered during the Treatment Period with psychotherapy in at least 3 blinded monthly Experimental Sessions. The Supplemental Dose extends the duration of drug effects on the participants during an Experimental Session. An optional Risk Evaluation and Mitigation Strategy (REMS) Protocol may be implemented for MDAI and placebo-groups. The Treatment Period lasts for approximately 12 weeks. During the Treatment Period, each Experimental Session is followed by three Intervening Sessions of non-drug psychotherapy. Each Experimental Session involves an overnight stay. The Primary Outcome measure, the change in Clinician Administered PTSD Scale for DSM-5 (CAPS-5), is determined by a blinded Independent Rater (IR) pool multiple times throughout the study. The study consists of separate periods for each participant. Initially, prospective participants undergo a Screening Period involving an initial eligibility assessment, a medical history intake, informed consent, and enrollment of eligible participants. Next, a Preparation Period is undertaken for enrolled participants involving medication tapering and clinical baseline assessments to confirm each participant meets enrollment criteria. As part of the Preparation Period, a detailed assessment of co-morbidities to PTSD is recorded. Participants may remain on prescribed courses of selective serotonin reuptake inhibitor (SSRI) or serotonin and norepinephrine reuptake inhibitor (SNRI) treatment. Dosages and/or frequency of administration of a prescribed SSRI or SNRI may be adjusted to fit within study parameters. Participants may be required to taper a prescribed course of medication in order to maintain eligibility within the study. The Treatment Period consists of three monthly Experimental Sessions and associated Intervening Sessions of integrative behavioral psychotherapy. The Treatment Period lasts approximately 12 weeks. Following the Treatment Period is a Follow-up Period and Study Conclusion. During the Follow-up Period and Study Conclusion, participants complete 4 weeks with no study visits, followed by a Study Conclusion visit.
This study compares the effects of three blinded Experimental Sessions of psychotherapy in combination with flexible doses of MDAI or placebo administered as described below. Non-drug preparatory and intervening psychotherapy sessions are also included. Patient's weight is determined for dosage calculation. Initial dose is 100 mg unless this will result in a dosage of less than 1.5 mg/kg of patient weight. Initial dose thereby adjusted upward in 50 mg increments to deliver the lowest dose possible of at least 1.5 mg/kg of patient weight. Initial dose for Experimental Session 2 and 3 is cumulative dose calculated by adding the initial dose plus REMS protocol dose used the previous Experimental Session for each patient.
Randomization occurs prior to the initiation of Experimental Session 1. Each participant is provided the next randomized number in a sequence by a blinded study monitor. Participants are then randomized, according to a computer-generated randomization schedule, […] to MDAI or placebo. The randomization schedule is prepared and implemented by an independent statistician. Participants, clinicians, and study teams are blinded to treatment allocation. MDAI treatment groups may be subjected to anxiogenic effects due to underdosing of participants. […]

The conditions of series [4]: Progress in Neuro-Psychopharmacology & Biological Psychiatry 69, 2016, 49-59; cited from earlier work.
The conditions of series [5]: cited from earlier work.
[6] abbreviates: 6 mg/kg ip, 30 min before test, vs vehicle.
Where [7] appears, read: at Study Conclusion, vs placebo-treated controls.

Counter-ions that a name gives are not always drawn. Bounds are passed on as bounds.

What is called half-life is how long it takes for the measured level to halve. `[2H]C1([2H])Oc2cc3c(cc2O1)C([2H])([2H])C([2H])(N)C3` (racemic) [Compound 4, 2,2,6,7,7-Pentadeuterio-5H-cyclopenta[f][1,3]benzodioxol-6-amine hydrochloride]: in series [1], the half-life at 0.25 μM is 7.97 h, the microsomal CLint at 0.25 μM stood at 2.9 µL/min/mg and the “in vitro clearance compared with MDAI HCl salt (reference compound)” value was “significantly lower”.
For `CNC1=Nc2ccc(Cl)cc2C(c2ccccc2)=[N+]([O-])C1` [CDP, Chlordiazepoxide], in series [2] (setting [6]), the “frequency of HDIPS” value is listed as “trend towards increased”, the “percentage of time in the open arms (% TO)” value (“percentage of time … (% TO)” for short) is listed as “significant increase”, the total line crossings entry is listed as “trend towards increased” and the “total open arm entries” value is recorded as “trend towards increased”.
`[2H]C1(N)Cc2cc3c(cc2C1([2H])[2H])OCO3` (racemic) [Compound 3, 6,7,7-Trideuterio-5H-cyclopenta[f][1,3]benzodioxol-6-amine hydrochloride]: in series [1], the half-life at 0.25 μM amounted to 7.42 h, the microsomal CLint at 0.25 μM was 3.12 µL/min/mg and the “in vitro clearance compared with MDAI HCl salt (reference compound)” value is on record as “significantly lower”.
Regarding `[2H]C1([2H])Oc2cc3c(cc2O1)CC(N)C3` [Compound 1, 2,2-Dideuterio-6,7-dihydro-5H-cyclopenta[f][1,3]benzodioxol-6-amine Hydrochloride], in series [1], the “half-life and intrinsic clearance compared to MDAI HCl (reference compound)” value is recorded as “exhibit differences”; the half-life at 0.25 μM turned out to be 3.27 h; the microsomal CLint at 0.25 μM turned out to be 7.09 µL/min/mg.
As for `NC1Cc2cc3c(cc2C1)OCO3` [MDAI, 5,6-Methylenedioxy-2-aminoindane], the “CAPS-5 assessments compared to placebo-treated controls” value in series [3] (Intervening Session 1C, 2C, 3C and Study Conclusion) is listed as “Significant improvements”. In series [3] (PTSD participants, at Study Conclusion), the “CAPS-5 assessment compared to the placebo group” value is given as “significant mean reduction”. For the same compound, the “lessening daytime sleepiness as measured by ESS” value in series [3] (at Study Conclusion) is recorded as “significant improvement”. For the same compound, in series [3] (setting [7]), the adverse anxiogenic incidents entry is given as “without a significant increase”, the “clinician-rated functional impairment score as measured by SDS” value was “significant improvement” and the “depression as measured by HAM-D” value was “significant improvement”. In series [4], the “toxicity reported associated with MDAI intoxication” value is reported as “serotonin syndrome”. In series [1], the half-life at 0.25 μM was 3.42 h and the microsomal CLint at 0.25 μM is 6.78 µL/min/mg. Further, in series [5], the “Oral MDAI dose, drug activity level Threshold” value is 40 mg and the “Oral MDAI dose, drug activity level Very Strong” value was not below 300 mg. Moreover, the “percentage of time … (% TO)” value in series [2] (0.625 mg/kg ip, 30 min before test, vs vehicle or any other dose (FIG. 1)) was “numerical increase”. Besides, the “percentage of time … (% TO)” value in series [2] (doses too low or too high (0.15, 0.31, 1.25, 2.5 mg/kg ip)) is listed as “opposite effect”. Besides, in series [2] (higher and lower doses (0.15, 0.31, 1.25, 2.5 mg/kg ip), FIG. 2), the “total open arm entries” value is reported as “trended towards an anxiogenic effect”. Also, in series [2] (middle dose (0.625 mg/kg ip), FIG. 2), the “total open arm entries” value is reported as “increase vs placebo that trended towards significance”.
`[2H]C1([2H])Oc2cc3c(cc2O1)C([2H])([2H])C([2H])(N)C3([2H])[2H]` [Compound 2, 2,2,5,5,6,7,7-Heptadeuteriocyclopenta[f][1,3]benzodioxol-6-amine Hydrochloride]: in series [1], the “half-life and intrinsic clearance compared to MDAI HCl (reference compound)” value is listed as “exhibit differences”; the half-life at 0.25 μM came to 3.83 h; the microsomal CLint at 0.25 μM was found to be 6.04 µL/min/mg.
Consider `[2H]C1([2H])c2cc3c(cc2C([2H])([2H])C1([2H])N)OCO3` [Compound 5, 5,5,6,7,7-Pentadeuteriocyclopenta[f][1,3]benzodioxol-6-amine hydrochloride], for which, in series [1], the half-life at 0.25 μM stood at 3.42 h and the microsomal CLint at 0.25 μM is 6.78 µL/min/mg.
In the same order, the values of `COc1ccc2c(c1)[C@]13CCCC[C@@H]1[C@H](C2)N(C)CC3` [dextromethorphan] are 0.433 h and 53.5 µL/min/mg.

The record behind these values is US20230181521A1, “IS[…] ANALOGS OF 5,6-METHYLENEDIOXY-2-AMINOINDANE (MDAI)” (Terran Biosciences, Inc., priority 2021, published 2023).
